Test results published in article PMC8887546, “Design and Synthesis of Brain Penetrant Glycopeptide Analogues of PACAP With Neuroprotective Potential for Traumatic Brain Injury and Parkinsonism” (Frontiers in drug discovery, 2022).

Experiments:
[1] = tested on: C57BL/6 mice, diffuse TBI; experiment: Flow cytometry analysis of blood after TBI; type: in vivo, mouse; conditions: 10 mg/kg i.p. 30 min prior to TBI
Experimental: 30 min prior to TBI or sham injury, mice were randomly assigned to a therapeutic group and received an intraperitoneal injection of 2LS80Mel (10 mg/kg) or sterile saline (0.25 ml). Groups were as follows: TBI-2LS80Mel n = 17; TBI-vehicle n = 17; sham n = 22 (vehicle n = 11, 2LS80Mel n = 11).
For injury induction 24 h post-surgery, mice were re-anesthetized with 5% isoflurane delivered for 3 min. The cap was removed from the injury-hub assembly and the dura was visually inspected through the hub to ensure it was intact with no debris. The hub was then filled with normal saline and attached to an extension tube connected to the male end of the fluid percussion device (Custom Design and Fabrication, Virginia Commonwealth University, Richmond, VA). An injury of moderate severity for our injury model (1.4 atm) was administered by releasing the pendulum onto the fluid-filled cylinder following the return of a toe-pinch response. Sham mice underwent the same procedure except the pendulum was not released. Injured mice were monitored for presence of a forearm fencing response and righting reflex times were recorded as indicators of injury severity ([Hosseini and Lifshitz, 2009]). The righting reflex time is the total time from the initial impact until the mouse spontaneously rights itself from a supine position. The fencing response is a tonic posturing characterized by extension and flexion of opposite arms that has been validated as an overt indicator of injury severity ([Hosseini and Lifshitz, 2009]). The injury hub was removed, and the brain was inspected for uniform herniation and integrity of the dura. The incision was cleaned with saline and closed using sutures. Moderately brain-injured mice had righting reflex recovery times greater than 4 min and a positive fencing response. […] After spontaneously righting, mice were placed in a heated recovery cage and monitored until they were ambulatory (approximately 5–15 min) before being returned to their piezoelectric sleep cage (see below). […]

[2] = tested on: Sprague Dawley rats, 6-OHDA lesion; experiment: Striatal dopamine content, HPLC-EC (study 2); type: in vivo, rat; conditions: more severe (40%) lesion, vs vehicle
Experimental: Rats were treated with 2LS98Lac or saline (vehicle) as outlined in the Schemes in Figures 9A,B via intraperitoneal (i.p.) injection (15 mg/kg). All animals were made hemi-parkinsonian with unilateral, striatal 6-hydroxydopamine (Sigma Aldrich, St. Louis, MO) injections. After surgery, behavioral assessments were done at 2- and 4-weeks post-surgery. 24 h after the last test animals were either euthanized and whole brains were harvested for future biochemical analysis or perfused and brains collected for immunohistochemistry and stereological assessment of tyrosine hydroxylase-positive (TH+) cells remaining in the SNc. In study 1: n = 16 each group were included, and all underwent the behavioral analysis: n = 16, and for the stereology in the SNc, n = 8 each group was used. In study 2: n = 23 each group were included. […] In the 2LS98Lac group, one video at 4 weeks was lost, reducing n = 22 in this specific analysis, and for the stereology, 2 brains were damaged during processing and could not be included in the stereology of the SNc, therefore […]. For biochemical subanalyses, n = 8 each group. For the microglial morphology subanalysis n = 7 each group.
FIGURE 9 | Evaluation of neuroprotection of the PACAP glycopeptide 2LS98Lac in rat Parkinson’s disease models. (A) Scheme for study 1, using a mild PD lesion. (B) Scheme for study 2, using a moderate PD lesion. […]

Row | SMILES | CD11b+CD115+Ly6Chigh monocyte population in blood [1] | CD11b+Ly6Chigh monocyte population in blood [1] | Neutrophil populations in blood [1] | Striatal DA content [2]
1 | CC[C@H](C)[C@H](NC(=O)CNC(=O)[C@H](CC(=O)O)NC(=O)[C@H](CO)NC(=O)[C@@H](N)Cc1c[nH]cn1)C(=O)N[C@@H](Cc1ccccc1)C(=O)N[C@H](C(=O)N[C@@H](CC(=O)O)C(=O)N[C@@H](CO)C(=O)N[C@@H](Cc1ccc(O)cc1)C(=O)N[C@@H](CO)C(=O)N[C@@H](CCCNC(=N)N)C(=O)N[C@@H](Cc1ccc(O)cc1)C(=O)N[C@@H](CCCNC(=N)N)C(=O)N[C@@H](CCCCN)C(=O)N[C@@H](CCC(N)=O)C(=O)N[C@@H](CC(C)C)C(=O)N[C@@H](C)C(=O)N[C@H](C(=O)N[C@@H](CCCCN)C(=O)N[C@@H](CCCCN)C(=O)N[C@@H](Cc1ccc(O)cc1)C(=O)N[C@@H](CC(C)C)C(=O)N[C@@H](C)C(=O)N[C@@H](C)C(=O)N[C@H](C(=O)N[C@@H](CC(C)C)C(=O)N[C@@H](CO[C@@H]1O[C@H](CO[C@H]2O[C@H](CO)[C@H](O)[C@H](O)[C@H]2O)[C@@H](O)[C@H](O)[C@H]1O)C(N)=O)C(C)C)C(C)C)[C@@H](C)O [Compound 2LS80Mel] | increase was not seen | increase was not seen | no differences | –
2 | [2H]C([2H])([2H])C([2H])(C([2H])([2H])[2H])[C@]([2H])(NC(=O)[C@H](C)NC(=O)[C@H](C)NC(=O)[C@H](CC(C)C)NC(=O)[C@H](Cc1ccc(O)cc1)NC(=O)[C@H](CCCCN)NC(=O)[C@H](CCCCN)NC(=O)[C@@]([2H])(NC(=O)[C@H](C)NC(=O)[C@H](CC(C)C)NC(=O)[C@H](CCC(N)=O)NC(=O)[C@H](CCCCN)NC(=O)[C@H](CCCNC(=N)N)NC(=O)[C@H](Cc1ccc(O)cc1)NC(=O)[C@H](CCCNC(=N)N)NC(=O)[C@H](CO)NC(=O)[C@H](Cc1ccc(O)cc1)NC(=O)[C@H](CO)NC(=O)[C@H](CC(=O)O)NC(=O)[C@@H](NC(=O)[C@H](Cc1ccccc1)NC(=O)[C@@H](NC(=O)CNC(=O)[C@H](CC(=O)O)NC(=O)[C@H](CO)NC(=O)[C@@H](N)Cc1c[nH]cn1)[C@@H](C)CC)[C@@H](C)O)C([2H])(C([2H])([2H])[2H])C([2H])([2H])[2H])C(=O)N[C@@H](CC(C)C)C(=O)N[C@@H](CO[C@@H]1O[C@H](CO)[C@@H](O[C@@H]2O[C@H](CO)[C@H](O)[C@H](O)[C@H]2O)[C@H](O)[C@H]1O)C(N)=O [Compound 2LS98Lac] | – | – | – | no significant difference
